Test results reported in patent US6103888A, “Mammalian cationic proteins having lipopolysaccharide binding and anti-coagulant activity” (priority 1999, dated 2000).
Where “and” joins values, the source holds several entries; their conditions need not be identical. Identical values can stand only once.

Experiments:
human monocytes = assay: TNF release from LPS and IFNγ stimulated monocytes; type: cell-based
E. coli (HB101) = assay: Bacterial proliferation, 3H-thymidine incorporation assay; type: cell-based; conditions: for Percent inhibition of proliferation: E. coli (HB101)
Procedure: (§1) Bacteria were grown in trypticase broth overnight.
(§2) To corroborate the anti-bacterial activity shown in the CFU assays, inhibition of proliferation of bacteria was tested directly using a ^3 H-thymidine incorporation assay. […] In summary although there is some strain to strain variation in the IC50, all of the Gram-negativestrains tested in two different types of assays were sensitive to these anti-microbial peptides.

Klebsiella pneumoniae = assay: as above; type: cell-based
Procedure: as §1, §2

Pseudomonas apacia = assay: as above; type: cell-based
Procedure: as §1, §2

[1] = test system: Staphylococcus aureus, coagulase positive; assay: as above; type: cell-based
Procedure: as §1, §2

Streptococcus pyogenes = assay: as above; type: cell-based
Procedure: as §1, §2

human mononuclear cells = assay: LPS-induced tissue factor by human mononuclear cells (clotting assay); type: cell-based
Procedure: Human mononuclear cells were separated from citrated peripheral blood by centrifugation over Sodium-metrizoate-Ficoll (lymphocyte Separation Medium, Japan Antibody Institute, Gumma). The resulting mixed mononuclear cell suspension was washed 3 times with RPMI 1640 media. Cell suspension (1×10^6 /ml) was stimulated with LPS for 16 to 18 hr.
Veronal buffered saline (VBS) was added to the cell pellet, lysed by 3 cycles of freeze/thaw and sonicated for 10 sec with a hand-held sonicator microbe (Handy Sonic, model UR-20P, Tomy Seiko LTD, Tokyo). Tissue factor activity was tested in modified unactivated partial thromboplastin time (7). One tenth ml of cell lysate (1×10^6 /ml) was preincubated with mouse plasma at 37° C. for 3 min. Then 0.1 ml of 25 mM-CaCl2 which contains phospholipid was added to the mixture and clotting time was measured using a fibrometer (Bio Quest Division, Becton Dickinson, Cokeysville, USA). A standard curve obtained from serial two-fold dilutions of rabbit brain thromboplastic (Simplastin, Ono Pharmaceutical Co.) was used to transpose tissue factor activity into arbitrary tissue factor units (1 μg/ml) suspension of rabbit brain was assigned a value of 1,000 units).
The mean tissue factor units+standard error was determined from three to four samples. Student's t test for unpair data was used to determine the statistically significant differences. A two-tailed P value of <0.05 was considered significant. […]

factor Xa = target: T1, factor Xa (Homo sapiens, UniProt P00742); assay: Direct Xa inhibition using Xa substrate S2222; type: biochemical; conditions: concentrations over 10 μg/ml
T1 construct: purchased Sigma Chemical Co., St. Louis, Mo
Source text: Clotting method: Human plasma (Ortho plasma control, Ortho Diagnostic Co.). ATPP reagent(Organo-technika, Tokyo, Japan). Standard tissue factor, rabbit brain thromboplastin (Simplastin, ONO Pharmaceutical, Tokyo, Japan). Purified human factor VII, factor X, factor Xa (Sigma Chemical Co., St. Louis, Mo.). Russell Viper venom (RVV) and Echis Carinatus venom (ECV, Sigma Co.).
Synthetic chromogenic substrate method: Substrate for factor Xa, S2222 (Kabi, Bz-Ile-Glu-Arg-pNA) was used. Substrate for factor II (prothrombin), Boc-Val-Pro-Arg-pNA (Sigma Chemical Co.) was used.

ddY mice = assay: Tissue factor lethality model; type: in vivo; conditions: for Survival (%): Tissue factor 1.0 mg/mouse IV
Procedure: Tissue factor lethality model. Reference tissue factor (simplastin, 1 mg/mouse) was IV injected into ddY mice (male, 20-week-old, 38-45 g) incubated with or without peptide.
^a Tissue factor (Simplastin, 10 mg/ml was mixed with equal volume of
synthetic peptide 100 μg/ml or 50 μg/ml and 0.2 ml of the mixture
injected IV. ddY mice (20 weeks, 38-45 gm).

E. coli O9:K39 K- strain = assay: Antibacterial CFU assay
[2] = LPS 0.1 μg/ml, peptide HA units: RNIP 2, CAP-18 1, HP-1 4, HP-2 2

T1 sequence (P00742 235-488 limits assumed): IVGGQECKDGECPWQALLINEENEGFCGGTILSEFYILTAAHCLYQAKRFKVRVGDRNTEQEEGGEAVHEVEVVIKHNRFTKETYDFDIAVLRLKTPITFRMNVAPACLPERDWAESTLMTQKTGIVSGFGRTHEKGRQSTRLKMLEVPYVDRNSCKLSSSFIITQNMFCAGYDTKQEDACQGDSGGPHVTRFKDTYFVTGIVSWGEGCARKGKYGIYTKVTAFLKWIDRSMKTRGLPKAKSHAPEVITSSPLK
T1 sequence (P00742 41-179 limits assumed): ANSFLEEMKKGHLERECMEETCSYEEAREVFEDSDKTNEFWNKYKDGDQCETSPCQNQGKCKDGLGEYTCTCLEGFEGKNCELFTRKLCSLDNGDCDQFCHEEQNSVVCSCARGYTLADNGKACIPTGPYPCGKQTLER

## RNIP: rabbit reactive nitrogen inhibitory protein, amino acids 135-171 of SEQ ID NO:4; purified from granulocytes (Tables 1-3) or synthetic (#197) (GLRKRLRKFRNKIKEKLKKIGQKIQGLLPKLAPRTDY)
Human monocytes; Human IFNγ (100 U), CAP (1:1), stimulus alone 2.0
  TNF: 0.27 ng/mL
Human monocytes; Human IFNγ (100 U), CAP (1:10), stimulus alone 2.0
  TNF: 0.35 ng/mL
Human monocytes; Human IFNγ (100 U), CAP (1:100), stimulus alone 2.0
  TNF: 0.35 ng/mL
Human monocytes; LPS (10 ng/ml), CAP (1:1), stimulus alone 1.0
  TNF: 0.12 ng/mL
Human monocytes; LPS (10 ng/ml), CAP (1:10), stimulus alone 1.0
  TNF: 0.34 ng/mL
Human monocytes; LPS (10 ng/ml), CAP (1:100), stimulus alone 1.0
  TNF: 0.23 ng/mL
E. coli (HB101); RNIP 0.6 μg/ml
  Percent inhibition of proliferation: 81%
E. coli (HB101); RNIP 1.25 μg/ml
  Percent inhibition of proliferation: 88%
E. coli (HB101); RNIP 2.5 μg/ml
  Percent inhibition of proliferation: 99%
E. coli (HB101); RNIP 5.0 μg/ml
  Percent inhibition of proliferation: 99%
E. coli (HB101); RNIP 2.5 μg/ml, FCS concentration 0 %
  Inhibition (%) of E. coli (HB101) proliferation: 94 ± 10.3%
E. coli (HB101); RNIP 2.5 μg/ml, FCS concentration 1 %
  Inhibition (%) of E. coli (HB101) proliferation: 91 ± 10.9%
E. coli (HB101); RNIP 2.5 μg/ml, FCS concentration 5 %
  Inhibition (%) of E. coli (HB101) proliferation: 87 ± 3.1%
E. coli (HB101); RNIP 2.5 μg/ml, FCS concentration 10 %
  Inhibition (%) of E. coli (HB101) proliferation: 78 ± 5.5%
Klebsiella pneumoniae; RNIP 0.6 μg/ml
  Percent inhibition of proliferation: 4%
Klebsiella pneumoniae; RNIP 1.25 μg/ml
  Percent inhibition of proliferation: 14%
Klebsiella pneumoniae; RNIP 2.5 μg/ml
  Percent inhibition of proliferation: 17%
Klebsiella pneumoniae; RNIP 5.0 μg/ml
  Percent inhibition of proliferation: 60%
Pseudomonas apacia; RNIP 0.6 μg/ml
  Percent inhibition of proliferation: 81%
Pseudomonas apacia; RNIP 1.25 μg/ml
  Percent inhibition of proliferation: 80%
Pseudomonas apacia; RNIP 2.5 μg/ml
  Percent inhibition of proliferation: 99%
Pseudomonas apacia; RNIP 5.0 μg/ml
  Percent inhibition of proliferation: 99%
[1]; RNIP 0.6 μg/ml
  Percent inhibition of proliferation: 23%
[1]; RNIP 1.25 μg/ml
  Percent inhibition of proliferation: 57%
[1]; RNIP 2.5 μg/ml
  Percent inhibition of proliferation: 72%
[1]; RNIP 5.0 μg/ml
  Percent inhibition of proliferation: 83%
Streptococcus pyogenes; RNIP 0.6 μg/ml
  Percent inhibition of proliferation: 74%
Streptococcus pyogenes; RNIP 1.25 μg/ml
  Percent inhibition of proliferation: 79%
Streptococcus pyogenes; RNIP 2.5 μg/ml
  Percent inhibition of proliferation: 90%
Streptococcus pyogenes; RNIP 5.0 μg/ml
  Percent inhibition of proliferation: 96%
Human mononuclear cells; [2]
  Inhibition (%): 51% and 41%
  Tissue Factor Units, value in parentheses (ratio to unstimulated control): 9.0
Human mononuclear cells; LPS 0.1 μg/ml, relative to LPS alone (100), 960 min
  Δ Units (%): 49% and 59%
Human mononuclear cells; no LPS, peptide alone
  Tissue Factor Units, value in parentheses (ratio to unstimulated control): 1.3
  Tissue factor units: 636 ± 141 Units ×10^3 /3.6 × 10^4 cells
  Δ Units: 144 Units
Factor Xa
  direct Xa inhibition (in words): No evidence of direct Xa inhibition
ddY mice; Peptide #197 5 μg/mouse
  Survival (%): 43%
ddY mice; Peptide #197 10 μg/mouse, p < 0.05 vs tissue factor control
  Survival (%): 57%
ddY mice; tissue factor IV (Simplastin, 1 mg/mouse)
  reduction of mortality: 57%
E. coli O9:K39 K- strain
  IC50, anti-bacterial activity: 0.68 µg/mL
E. coli O9:K39 K- strain; read-out: IC50, anti-bacterial activity
  IC50: 110 nM
